According to patent US20250368699A1, “ARTHROPOD CHEMOSENSORY RECEPTORS AND USES THEREOF” (Firmenich Incorporated, priority 2022, published 2025):
Read-outs that look alike come from different tables or passages of the source.

Target: AaORCO+AaOR8 receptors (Aedes aegypti, UniProt A0A1S4FVR6)
Experiment: Automatic planar patch-clamp electrophysiology in U2OS cells co-transduced with AaORCO and AaOR8
Type: cell-based
Method: In this example, U2OS cells were co-transduced with AaORCO and AaOR8 channel subunits overnight and stimulated with increasing concentrations of 1-octen-3-ol ligand in the absence and presence of 10 μM VUAA1.
Cell culture and transduction. U2OS and HEK293 cells were grown on T150 flasks with Dulbecco's modified eagle medium supplemented with 10% fetal bovine serum and 1% Penicillin/Streptomycin in a 37° C. incubator under a 5% CO2 atmosphere. For transductions, cell cultures were pooled at 1.5×10^6 cell/ml, centrifuged at 1000 xg for 5 min, and resuspended in fresh medium. Resuspended cultures were inoculated at a multiplicity of 1-20 pfu/cell with baculovirus encoding AaORCO or AaORCO with AaOR8, AaOR2 or AaOR11 and AgORCO with AgOR8 or AgOR2. A further untransduced culture was used as a control. Cultures were maintained in an incubator at 37° C. and used for electrophysiology or FLIPR measurements 1-4 days after infection.
Planar Patch Clamp Electrophysiology Assay. […] On the day of the assay, the cells were lifted, washed once in PBS and loaded on a Nanion Synchropatch384 instrument and currents were recorded using voltage clamp in standard whole-cell configuration at-90 mV on an 8-hole version chip (NPC-384T).

Chain of AaORCO+AaOR8 receptors (Q178U6 whole entry): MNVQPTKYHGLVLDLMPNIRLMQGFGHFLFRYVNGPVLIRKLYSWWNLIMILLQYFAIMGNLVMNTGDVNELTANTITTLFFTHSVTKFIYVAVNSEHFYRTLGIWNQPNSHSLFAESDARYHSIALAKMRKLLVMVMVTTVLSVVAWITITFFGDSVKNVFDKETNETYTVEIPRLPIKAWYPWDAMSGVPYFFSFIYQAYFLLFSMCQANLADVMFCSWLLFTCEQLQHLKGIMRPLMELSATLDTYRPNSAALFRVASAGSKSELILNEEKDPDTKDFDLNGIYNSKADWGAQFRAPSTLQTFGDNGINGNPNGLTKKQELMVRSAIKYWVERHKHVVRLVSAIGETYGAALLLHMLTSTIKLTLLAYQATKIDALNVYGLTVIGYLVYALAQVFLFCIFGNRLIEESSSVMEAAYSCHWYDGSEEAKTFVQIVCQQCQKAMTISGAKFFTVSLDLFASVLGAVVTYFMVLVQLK
Chain of AaORCO+AaOR8 receptors (A0A1S4FVR6 entry or part of it): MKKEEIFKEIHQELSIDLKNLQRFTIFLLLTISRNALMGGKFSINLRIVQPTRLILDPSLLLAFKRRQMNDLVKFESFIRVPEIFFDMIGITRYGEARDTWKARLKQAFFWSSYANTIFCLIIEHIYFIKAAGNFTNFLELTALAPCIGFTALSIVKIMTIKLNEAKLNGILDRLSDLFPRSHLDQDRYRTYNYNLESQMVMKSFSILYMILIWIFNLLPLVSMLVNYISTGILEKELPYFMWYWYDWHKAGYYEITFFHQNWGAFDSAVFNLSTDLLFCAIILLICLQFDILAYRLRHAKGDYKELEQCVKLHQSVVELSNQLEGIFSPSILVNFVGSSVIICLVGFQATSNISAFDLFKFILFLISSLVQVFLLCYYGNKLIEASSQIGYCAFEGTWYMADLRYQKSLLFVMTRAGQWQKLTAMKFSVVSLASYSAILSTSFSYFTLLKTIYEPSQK

- EC50 (absence of VUAA1, read-out: EC50, dose-dependent activation of AaORCO+AaOR8 channel currents): 537 nM
- EC50 (presence of 10 μM VUAA1, read-out: EC50, activation of AaORCO+AaOR8 channel currents in the presence of VUAA1 (left-shift)): 101 nM
Compound: C=CC(O)CCCCC (centres unmarked) [1-octen-3-ol]
